Source: US6610883B1, “Compounds having selective activity for retinoid X receptors, and means for modulation of processes mediated by retinoid X receptors” (Ligand Pharmaceuticals, Inc., priority 1992, dated 2003)
Where two headings read alike, the source gives them in different places.

Experiments:
Type in all cases: cell-based
RXRα = molecular target: T1, RXRα (Homo sapiens, UniProt P19793); assay: Co-transfection (cis-trans) assay in CV-1 cells, RXRα; parameters: Emax: dose or concentration left out as unconfirmed; settings: for Emax at 10 µM: CV-1, maximal response relative to all-trans-retinoic acid at 10^−5 M, read-out: Efficacy
T1 construct: The first plasmid contains a retinoid receptor cDNA and directs constitutive expression of the encoded receptor; expressed in transfected cells; host or cells: CV-1 (monkey kidney)
T1 sequence (P19793 1-462): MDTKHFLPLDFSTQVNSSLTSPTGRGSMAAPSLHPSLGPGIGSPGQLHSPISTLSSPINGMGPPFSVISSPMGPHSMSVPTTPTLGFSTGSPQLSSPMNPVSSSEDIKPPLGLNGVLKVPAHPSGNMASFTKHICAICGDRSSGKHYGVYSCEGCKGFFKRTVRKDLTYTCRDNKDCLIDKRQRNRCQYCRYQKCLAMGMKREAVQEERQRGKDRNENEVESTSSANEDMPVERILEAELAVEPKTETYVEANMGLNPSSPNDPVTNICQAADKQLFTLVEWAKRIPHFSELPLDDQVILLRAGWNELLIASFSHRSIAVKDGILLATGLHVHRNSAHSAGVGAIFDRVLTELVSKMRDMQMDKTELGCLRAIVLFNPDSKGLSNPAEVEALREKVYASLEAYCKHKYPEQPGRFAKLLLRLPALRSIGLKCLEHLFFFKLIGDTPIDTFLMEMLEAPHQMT
Source text: (§1) The co-transfection assay provides a mechanism to evaluate the ability of a compound to modulate the transcription response initiated by an intracellular receptor. […] Berger, et al., J. Steroid Biochem Molec.
(§2) Briefly, the co-transfection assay involves the introduction of two plasmids by transient transfection into a retinoid receptor-negative mammalian cell background. The first plasmid contains a retinoid receptor cDNA and directs constitutive expression of the encoded receptor. The second plasmid contains a cDNA that encodes for a readily quantifiable protein, e.g., firefly luciferase or chloramphenicol acetyl transferase (CAT), under control of a promoter containing a retinoid acid response element, which confers retinoid dependence on the transcription of the reporter. In this co-transfection assay, all retinoid receptors respond to all-trans-retinoic acid in a similar fashion. This assay can be used to accurately measure efficacy and potency of retinoic acid and synthetic retinoids as ligands that interact with the individual retinoid receptor subtypes.
(§3) Accordingly, synthetic retinoid compounds of the current invention were evaluated for their interaction with retinoid receptor subtypes using the co-transfection assay in which CV-1 cells were co-transfected with one of the retinoid receptor subtypes, a reporter construct, and an internal control to allow normalization of the response for transfection efficiency. The following example is illustrative.
(§4) Retinoids: All-tans-retinoic acid (RA) and 13-cis-retinoic acid (13-cis-RA) were obtained from Sigma. […] Retinoids were dissolved in dimethylsulfoxide for use in the transcriptional activation assays.
(§5) Co-transfection Assay In CV-1 Cells: A monkey kidney cell line, CV-1, was used in the cis-trans assay. Cells were transfected with two plasmids. […] The cis-vector contains an easily assayable gene product, in this case the firefly luciferase, coupled to a retinoid-responsive promoter, i.e., an RARE or RXRE. Addition of retinoic acid or an appropriate synthetic retinoid results in the formation of a retinoid-RAR or -RXR complex that activates the expression of luciferase gene, causing light to be emitted from cell extracts. The level of luciferase activity is directly proportional to the effectiveness of the retinoid-receptor complex in activating gene expression. This sensitive and reproducible co-transfection approach permits the identification of retinoids that interact with the different receptor isoforms.
(§6) Cells were cultured in DMEM supplemented with 10% charcoal resin-stripped fetal bovine serum, and experiments were conducted in 96-well plates. […] Cells were transfected for 6 h and then washed to remove the precipitate. The cells were then incubated for 36 h with or without retinoid. After the transfection, all subsequent steps were performed on a Beckman Biomek Automated Workstation. […] All determinations were performed in triplicate in two independent experiments and were normalized for transfection efficiency by using β-galactosidase as the internal control. […] Efficacy values less than 5% are not statistically different than the 0% background.

RXRβ = molecular target: T2, RXRβ (Mus musculus, UniProt P28704); assay: Co-transfection (cis-trans) assay in CV-1 cells, RXRβ; settings: for Emax at 10 µM: CV-1, maximal response relative to all-trans-retinoic acid at 10^−5 M, read-out: Efficacy
T2 construct: expressed in transfected cells; host or cells: CV-1 (monkey kidney)
T2 sequence (P28704 1-520): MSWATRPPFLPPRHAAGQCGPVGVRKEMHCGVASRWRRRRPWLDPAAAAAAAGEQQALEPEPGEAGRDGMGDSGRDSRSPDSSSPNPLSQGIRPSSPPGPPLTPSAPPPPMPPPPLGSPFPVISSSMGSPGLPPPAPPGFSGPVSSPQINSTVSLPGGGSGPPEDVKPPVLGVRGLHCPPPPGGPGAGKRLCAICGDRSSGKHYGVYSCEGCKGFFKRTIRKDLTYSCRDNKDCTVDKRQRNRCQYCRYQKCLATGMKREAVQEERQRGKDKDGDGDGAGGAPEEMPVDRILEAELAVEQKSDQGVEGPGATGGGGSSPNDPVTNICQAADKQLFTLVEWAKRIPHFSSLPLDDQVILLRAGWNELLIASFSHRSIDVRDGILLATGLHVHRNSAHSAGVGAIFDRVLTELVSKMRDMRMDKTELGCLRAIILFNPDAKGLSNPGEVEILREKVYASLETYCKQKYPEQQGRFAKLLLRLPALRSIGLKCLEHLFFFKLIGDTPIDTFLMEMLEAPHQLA
Source text: as §1, §2, §3, §4, §5, §6

RARα = molecular target: T3, RARα (Homo sapiens, UniProt P10276); assay: Co-transfection (cis-trans) assay in CV-1 cells, RARα; parameters: expressed in transfected cells; host or cells: CV-1 (monkey kidney); settings: for Emax at 10 µM: CV-1, maximal response relative to all-trans-retinoic acid at 10^−5 M, read-out: Efficacy; for EC50: CV-1 cells, luciferase reporter, 36 h, read-out: Potency
T3 sequence (P10276 1-462): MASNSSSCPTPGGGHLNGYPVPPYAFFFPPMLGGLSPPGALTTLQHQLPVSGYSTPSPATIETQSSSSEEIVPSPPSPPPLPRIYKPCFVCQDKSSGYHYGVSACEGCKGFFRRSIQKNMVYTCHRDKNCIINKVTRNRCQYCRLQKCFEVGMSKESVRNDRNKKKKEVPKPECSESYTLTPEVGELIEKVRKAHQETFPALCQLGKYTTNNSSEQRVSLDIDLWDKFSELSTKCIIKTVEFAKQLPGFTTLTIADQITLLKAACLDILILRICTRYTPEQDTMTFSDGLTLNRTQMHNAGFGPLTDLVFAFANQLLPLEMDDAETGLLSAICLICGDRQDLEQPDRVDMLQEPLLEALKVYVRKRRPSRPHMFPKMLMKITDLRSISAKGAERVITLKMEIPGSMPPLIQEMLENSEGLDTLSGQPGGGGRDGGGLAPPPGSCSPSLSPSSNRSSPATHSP
Source text: as §1, §2, §3, §4, §5, §6

[1] = RXRα, CV-1 cells, luciferase reporter, 36 h, read-out: Potency
[2] = RXRβ, CV-1 cells, luciferase reporter, 36 h, read-out: Potency

Row | Structure (SMILES) | Emax at 10 µM (RXRα; RXRα) [%] | EC50 (RXRα; [1]) [µM] | Emax at 10 µM (RXRβ; RXRβ) [%] | EC50 (RXRβ; [2]) [µM] | Emax at 10 µM (RARα) [%] | EC50 (RARα) [µM] | EC50 (RXRα) [µM] | Emax (RXRα; CV-1, read-out: Efficacy) [%] | EC50 (RXRβ) [µM]
1 | CC1=C(/C=C/C(=C\C=C\C(C)=C\C(=O)O)C(C)C)C(C)(C)CCC1 [Compound 75, 3-methyl-7-isopropyl-9-(2,6,6-trimethyl-1-cyclohexen-1-yl)-2E,4E,6Z,8E-nonatetranoic acid] | 100 | 0.021 | 142 | 0.018 | < 2 | > 10 |  |  | 
2 | Cc1cc2c(cc1C(=O)c1ccc(C(=O)Nc3ccc(O)cc3)cc1)C(C)(C)CCC2(C)C [3-Methyl-TTNCHBP, 4-[(3,5,5,8,8-pentamethyl-5,6,7,8-tetrahydro-2-naphthyl)carbonyl]-N-(4-hydroxyphenyl)benzamide] | 113 | 1.1 | 155 | 1.1 | < 2 | > 10 |  |  | 
3 | CC1=C(/C=C/C2(C/C=C/C(C)=C/C(=O)O)CC2)C(C)(C)CCC1 [Compound 110] | 79 | 0.085 | 73 | 0.07 | 9 | > 10 |  |  | 
4 | C=C(c1ccc(C(=O)Nc2ccc(O)cc2)cc1)c1cc2c(cc1C)C(C)(C)CCC2(C)C [3-Methyl-TTNEHBP (63), 4-[1-(3,5,5,8,8-pentamethyl-5,6,7,8-tetrahydro-2-naphthyl)ethenyl]-N-(4-hydroxyphenyl)benzamide] | 125 | 0.14 | 121 | 0.071 | < 2 | > 10 |  |  | 
5 | CC(/C=C/C1(c2cc3c(cc2C)C(C)(C)CCC3(C)C)CC1)=C\C(=O)O [Compound 104, (2E,4E)-3-methyl-5-[1-(3,5,5,8,8-pentamethyl-5,6,7,8-tetrahydro-2-naphthyl)cyclopropyl]penta-2,4-dienoic acid] | 75 | 0.005 | 133 | 0.013 | 7 | > 10 |  |  | 
6 | C/C(=C/C=C/C(C)=C/C(=O)O)c1cc2c(cc1C)C(C)(C)CCC2(C)C [Compound 128, (2E,4E,6Z)-7-(3,5,5,8,8-pentamethyl-5,6,7,8-tetrahydro-2-naphthyl)-3-methyl-octa-2,4,6-trienoic acid] | 108 | 0.011 | 154 | 0.022 | 12 | > 10 |  |  | 
7 | C=C(c1ccc(C(=O)O)cc1)c1cc2c(cc1Br)C(C)(C)CCC2(C)C [3-Bromo-TTNEB, 4-[1-(3-bromo-5,5,8,8-tetramethyl-5,6,7,8-tetrahydro-2-naphthyl)ethenyl]benzoic acid] |  |  |  |  | 3 |  | 0.064 | 88 | 0.054

More lines, main results first:

Row | Emax at 10 µM (RXRα; RXRα) [%] | EC50 (RXRα; [1]) [µM] | Emax at 10 µM (RXRβ; RXRβ) [%] | EC50 (RXRβ; [2]) [µM] | Emax at 10 µM (RARα) [%] | EC50 (RARα) [µM] | Structure (SMILES) | EC50 (RXRα) [µM] | Emax (RXRα; CV-1, read-out: Efficacy) [%] | EC50 (RXRβ) [µM]
8 | 75 | 0.016 | 99 | 0.011 | < 2 | > 10 | CC1=C(/C=C/C(=C\C=C\C(C)=C\C(=O)O)C(C)(C)C)C(C)(C)CCC1 [Compound 77, 3-methyl-7-t-butyl-9-(2,6,6-trimethyl-1-cyclohexen-1-yl)-2E,4E,6Z,8E-nonatetranoic acid] |  |  | 
9 | 90 | 0.024 | 105 | 0.021 | 11 | > 10 | CC(/C=C/C=C(\c1ccc2c(c1)C(C)(C)CCC2(C)C)C(C)C)=C\C(=O)O [Compound 123, (2E,4E,6Z)-7-(5,5,8,8-tetramethyl-5,6,7,8-tetrahydro-2-naphthyl)-3,8-dimethyl-nona-2,4,6-trienoic acid] |  |  | 
10 | 78 | 0.011 | 91 | 0.006 | < 2 | > 10 | CCCC(=C/C=C/C(C)=C/C(=O)O)/C=C/C1=C(C)CCCC1(C)C [Compound 74, 3-methyl-7-propyl-9-(2,6,6-trimethyl-1-cyclohexen-1-yl)-2E,4E,6Z,8E-nonatetranoic acid] |  |  | 
11 | 63 | 0.123 | 54 | 0.071 | 9 | > 10 | CC1=C(C=CC2CCCCC2/C=C/C(C)=C/C(=O)O)C(C)(C)CCC1 (stereo not shown) [Compound 100, 3-methyl-5-(2-[2-(2,6,6-trimethylcyclohexen-1-yl)ethenyl]cyclohexyl)-2E,4E-pentadienoic acid] |  |  | 
